Legend:
[1] = biological target: T1, rat ATB^0,+ (Rattus norvegicus, UniProt Q334I2); experiment: Substrate-induced inward currents in Xenopus oocytes expressing rat ATB0,+ (voltage clamp); format: cell-based; conditions: 5 mM; voltage clamp
T1 sequence (Q334I2 1-640): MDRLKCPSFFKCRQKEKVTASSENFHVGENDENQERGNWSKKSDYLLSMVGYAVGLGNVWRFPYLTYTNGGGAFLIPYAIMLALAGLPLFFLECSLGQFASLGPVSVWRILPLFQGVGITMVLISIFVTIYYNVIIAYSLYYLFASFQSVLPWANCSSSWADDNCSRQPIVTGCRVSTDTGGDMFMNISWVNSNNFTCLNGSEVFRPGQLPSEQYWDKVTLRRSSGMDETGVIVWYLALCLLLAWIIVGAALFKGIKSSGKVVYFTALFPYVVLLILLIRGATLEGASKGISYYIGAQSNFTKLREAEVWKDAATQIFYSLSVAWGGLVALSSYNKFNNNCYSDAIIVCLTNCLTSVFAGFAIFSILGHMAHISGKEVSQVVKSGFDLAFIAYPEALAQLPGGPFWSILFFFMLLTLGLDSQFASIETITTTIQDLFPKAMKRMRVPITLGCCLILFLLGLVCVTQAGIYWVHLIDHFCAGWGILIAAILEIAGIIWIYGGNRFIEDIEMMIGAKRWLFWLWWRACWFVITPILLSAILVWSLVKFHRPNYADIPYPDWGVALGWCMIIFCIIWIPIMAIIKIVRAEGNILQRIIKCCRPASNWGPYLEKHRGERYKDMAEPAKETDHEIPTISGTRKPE
Experimental: Experiments with HRPE cells were repeated at least three times with three independent transfections and transport measurements made in duplicate in each experiment. Electrophysiological measurements of substrate-induced currents were repeated at least three times with separate oocytes. The data are presented as means±S.E.M. of these replicates. The kinetic parameters, Michaelis constant (Kt) and maximal velocity (Vmax) were calculated by fitting the ATB^0,+-specific transport data to the Michaelis-Menten equation describing a single saturable transport system. Na^+ and Cl^−-activation kinetics were analyzed by fitting the ATB^0,+-specific transport data to the Hill equation for the determination of K0.5 values for Na^+ and Cl^− (concentration of Na^+ and Cl^− necessary for half-maximal activation) and the Hill coefficient (nH; the number of Na^+ or Cl^− ions involved in the activation process). The kinetics parameters were first determined by non-linear regression methods and subsequently confirmed by linear regression methods using the commercially-available computer program SigmaPlot, version 6.0 (SPSS Inc., Chicago, Ill., US).
Therefore, it was necessary to determine whether or not the α-carboxyl esters of neutral amino acids are transportable substrates for ATB^0,+. For this purpose, we used the X. laevis oocyte expression system. Cloned rat ATB^0,+ was functionally expressed in oocytes by injection of corresponding cRNA, and the transport of substrates via the transporter was monitored by inward currents when the oocytes were exposed to putative substrates under voltage-clamp conditions.

[2] = system: HDAC; experiment: HDAC activity in a cell-free system with MCF7 cell lysate; format: biochemical, human
Experimental: Measurement of HDAC activity in a cell-free system: This was done using a commercially available assay kit (BioVision). MCF7 cell lysate was used as a source of HDAC activity. 50 μg of lysate protein was incubated with various monocarboxylates (1 mM), or trichostatin A (20 μM), and the reaction was initiated by the addition of HDAC substrate. The reaction was then terminated and the deacetylated product was measured according to the manufacturer's instructions. The activity is expressed in nmoles of deacetylated product formed per μg of MCF7 cell lysate protein per 30 min.

[3] = system: MCF7 cells transfected with SMCT1 cDNA; experiment: Colony formation assay in MCF7 cells transfected with SMCT1 cDNA; format: cell-based, human; conditions: SMCT1-expressing MCF7 cells

SMILES: CC(=O)O [acetate]
- Inward currents induced in ATB0,+-expressing oocytes (in words) [1]: did not induce detectable current
- HDAC inhibition (in words) [2]: least potent
- Effect on cell growth / apoptosis [3]: no effect on cell growth
